In US10285983B2, “3-(1H-pyrrolo[2,3-B]pyridin-2-yl)-1H-pyrazolo[3,4-B] pyridines and therapeutic uses thereof” (Samumed, LLC, priority 2015, dated 2019):

Columns and labels:
Format in all cases: cell-based
[1] = system: primary human fibroblasts derived from IPF patients (LL29 cells); test: Inhibition of fibrotic process, αSMA staining in TGF-β1 treated LL29 fibroblasts; conditions: Fibroblast, 96 h, TGF-β1 20 ng/mL, 4 days; for EC50: % αSMA positive cells; for inhibition at 10 µM: given for EC50 >10 μM, read-out: percent inhibition at 10 μM
Outline: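 IPF-patient LL29 lung fibroblasts in 1% FBS medium received compound (11-point, 1:2 dilution, 0.1% DMSO) plus TGF-β1 20 ng/mL, 4 days at 37 °C. Percent αSMA-positive cells among SYTOX-negative cells quantified by immunofluorescence imaging, normalized to TGF-β1/DMSO wells. EC50 by non-linear regression on triplicates; above 10 μM, % inhibition at 10 μM given.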

SW480 colon cancer cells = test: Cell viability assay (CellTiter-Blue); conditions: Homo sapiens, 96 h, four days; for inhibition at 10 µM: given for EC50 >10 μM, read-out: percent inhibition at 10 μM
Outline: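 Resazurin reduction (Ex 560/Em 590 nm, ~3 h reagent incubation) served as the viability read-out after SW480 cells were treated for four days at 37 °C. Doses ran from 10 μM down to 0.0045 μM in eight 1:3 steps. Curves fitted non-linearly for EC50, else % inhibition at 10 μM reported.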

[2] = system: Wnt activity (Sp5-Luc reporter, SW480 colon carcinoma cells); test: Wnt activity screening assay, Sp5-Luc reporter gene in SW480 cells; conditions: Homo sapiens; for inhibition at 10 µM: given for EC50 >10 μM, read-out: percent inhibition at 10 μM; for EC50: overnight incubation
Outline: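 SW480 colon carcinoma cells stably expressing firefly luciferase under a human Sp5 promoter (eight TCF/LEF sites), plated in 1% FBS medium. 10-point 1:3 dilutions from 10 μM, 0.1% DMSO final, overnight at 37 °C; luminescence normalized to DMSO, four-parameter fit for EC50, % inhibition at 10 μM if EC50 >10 μM.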

| EC50 (SW480 colon cancer cells) [µM] | EC50 [2] [µM] | Compound | EC50 [1] [µM] | inhibition at 10 µM (SW480 colon cancer cells) [%] | inhibition at 10 µM [2] [%] | inhibition at 10 µM [1] [%] |
| --- | --- | --- | --- | --- | --- | --- |
| > 10 | > 10 | Fc1ccc(-c2ccnc3[nH]c(-c4n[nH]c5ncc(-c6cncc(CN7CCC(F)(F)C7)c6)cc45)cc23)cc1 [Compound 54, 5-(5-((3,3-Difluoropyrrolidin-1-yl)methyl)pyridin-3-yl)-3-(4-(4-fluorophenyl)-1H-pyrrolo[2,3-b]pyridin-2-yl)-1H-pyrazolo[3,4-b]pyridine] | 4.88 | 6.9 | 8.7 | – |
| > 10 | > 10 | Nc1cncc(-c2cnc3[nH]nc(-c4cc5c(-c6ccncc6)ccnc5[nH]4)c3c2)c1 [Compound 115, 5-(3-(4-(Pyridin-4-yl)-1H-pyrrolo[2,3-b]pyridin-2-yl)-1H-pyrazolo[3,4-b]pyridin-5-yl)pyridin-3-amine] | 5.9 | 0 | 5.6 | – |
| > 10 | > 10 | CC(C)CC(=O)Nc1cncc(-c2cnc3[nH]nc(-c4cc5c(-c6cccnc6)ccnc5[nH]4)c3c2)c1 [Compound 86, 3-Methyl-N-(5-(3-(4-(pyridin-3-yl)-1H-pyrrolo[2,3-b]pyridin-2-yl)-1H-pyrazolo[3,4-b]pyridin-5-yl)pyridin-3-yl)butanamide] | > 10 | 24.1 | 2.7 | 0 |
| > 10 | > 10 | O=C(Nc1cncc(-c2cnc3[nH]nc(-c4cc5c(-c6ccc(F)cc6)ccnc5[nH]4)c3c2)c1)C1CCCCC1 [Compound 51, N-(5-(3-(4-(4-Fluorophenyl)-1H-pyrrolo[2,3-b]pyridin-2-yl)-1H-pyrazolo [3,4-b]pyridin-5-yl)pyridin-3-yl)cyclohexanecarboxamide] | > 10 | 17.7 | 14.2 | 1.3 |
| > 10 | > 10 | O=C(Nc1cncc(-c2cnc3[nH]nc(-c4cc5cccnc5[nH]4)c3c2)c1)C1CCCC1 [Compound 274, N-(5-(3-(1H-Pyrrolo[2,3-b]pyridin-2-yl)-1H-pyrazolo[3,4-b]pyridin-5-yl)pyridin-3-yl)cyclopentanecarboxamide] | 0.76 | 54.2 | 40.3 | – |
| > 10 | > 10 | c1cc(N2CCCCC2)c2cc(-c3n[nH]c4ncc(-c5cncc(CN6CCCC6)c5)cc34)[nH]c2n1 [Compound 182, 3-(4-(Piperidin-1-yl)-1H-pyrrolo[2,3-b]pyridin-2-yl)-5-(5-(pyrrolidin-1-ylmethyl)pyridin-3-yl)-1H-pyrazolo[3,4-b]pyridine] | > 10 | 26 | 7.1 | 21.9 |
| > 10 | > 10 | CN(C)CCNc1cc(F)cc(-c2ccnc3[nH]c(-c4n[nH]c5ncc(-c6cncc(NC(=O)C(C)(C)C)c6)cc45)cc23)c1 [Compound 456, N-(5-(3-(4-(3-((2-(Dimethylamino)ethyl)amino)-5-fluorophenyl)-1H-pyrrolo [2,3-b]pyridin-2-yl)-1H-pyrazolo[3,4-b]pyridin-5-yl)pyridin-3-yl)pivalamide] | > 10 | 0 | 42.4 | 0 |
| > 10 | > 10 | Nc1cncc(-c2cnc3[nH]nc(-c4cc5c(-c6ccccc6F)ccnc5[nH]4)c3c2)c1 [Compound 59, 5-(3-(4-(2-Fluorophenyl)-1H-pyrrolo[2,3-b]pyridin-2-yl)-1H-pyrazolo[3,4-b]pyridin-5-yl)pyridin-3-amine] | > 10 | 20.1 | 48.3 | 0 |
| > 10 | > 10 | Cc1ccncc1-c1cnc2[nH]nc(-c3cc4c(-c5ccncc5)ccnc4[nH]3)c2c1 [Compound 117, 5-(4-Methylpyridin-3-yl)-3-(4-(pyridin-4-yl)-1H-pyrrolo[2,3-b]pyridin-2-yl)-1H-pyrazolo[3,4-b]pyridine] | > 10 | 10.1 | 13 | 52.9 |
| > 10 | > 10 | CC(C)(C)CC(=O)Nc1cncc(-c2cnc3[nH]nc(-c4cc5c(-c6ccoc6)ccnc5[nH]4)c3c2)c1 [Compound 324, N-(5-(3-(4-(Furan-3-yl)-1H-pyrrolo[2,3-b]pyridin-2-yl)-1H-pyrazolo[3,4-b]pyridin-5-yl)pyridin-3-yl)-3,3-dimethylbutanamide] | > 10 | 5.3 | 4.2 | 0 |
| > 10 | > 10 | CN(C)Cc1cncc(-c2cnc3[nH]nc(-c4cc5c(N6CCCCC6)ccnc5[nH]4)c3c2)c1 [Compound 181, N,N-Dimethyl-1-(5-(3-(4-(piperidin-1-yl)-1H-pyrrolo[2,3-b]pyridin-2-yl)-1H-pyrazolo[3,4-b]pyridin-5-yl)pyridin-3-yl)methanamine] | 0.007 | 40.9 | 38.8 | – |
| > 10 | > 10 | CC(C)(C)C(=O)Nc1cncc(-c2cnc3[nH]nc(-c4cc5c(N6CCCCC6)ccnc5[nH]4)c3c2)c1 [Compound 176, N-(5-(3-(4-(Piperidin-1-yl)-1H-pyrrolo[2,3-b]pyridin-2-yl)-1H-pyrazolo[3,4-b]pyridin-5-yl)pyridin-3-yl)pivalamide] | > 10 | 2.9 | 5 | 22.4 |

| Compound | EC50 (SW480 colon cancer cells) [µM] | EC50 [2] [µM] | EC50 [1] [µM] | inhibition at 10 µM (SW480 colon cancer cells) [%] | inhibition at 10 µM [2] [%] | inhibition at 10 µM [1] [%] |
| --- | --- | --- | --- | --- | --- | --- |
| CCC(=O)Nc1cncc(-c2cnc3[nH]nc(-c4cc5c(N6CCCCC6)ccnc5[nH]4)c3c2)c1 [Compound 169, N-(5-(3-(4-(Piperidin-1-yl)-1H-pyrrolo[2,3-b]pyridin-2-yl)-1H-pyrazolo[3,4-b]pyridin-5-yl)pyridin-3-yl)propionamide] | > 10 | 0.861 | 2.98 | 36.1 | – | – |
| c1cncc(-c2cnc3[nH]nc(-c4cc5cccnc5[nH]4)c3c2)c1 [Compound 256, 5-(Pyridin-3-yl)-3-(1H-pyrrolo[2,3-b]pyridin-2-yl)-1H-pyrazolo[3,4-b]pyridine] | > 10 | 1.06 | 0.529 | 5.8 | – | – |
| O=C(Nc1cncc(-c2cnc3[nH]nc(-c4cc5c(-c6cccs6)ccnc5[nH]4)c3c2)c1)C1CC1 [Compound 356, N-(5-(3-(4-(Thiophen-2-yl)-1H-pyrrolo[2,3-b]pyridin-2-yl)-1H-pyrazolo[3,4-b]pyridin-5-yl)pyridin-3-yl)cyclopropanecarboxamide] | > 10 | 6.37 | > 10 | 14.5 | – | 0 |
| Cc1ncc(-c2cnc3[nH]nc(-c4cc5c(-c6cc(F)cc(NCCN(C)C)c6)ccnc5[nH]4)c3c2)n1C [Compound 781, N^1-(3-(2-(5-(1,2-Dimethyl-1H-imidazol-5-yl)-1H-pyrazolo[3,4-b]pyridin-3-yl)-1H-pyrrolo[2,3-b]pyridin-4-yl)-5-fluorophenyl)-N^2,N^2-dimethylethane-1,2-diamine] | > 10 | 4.46 | 0.938 | 0 | – | – |
